ChEMBL document CHEMBL1201862, “PubChem BioAssay data set” (2004)
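1) Cells in 96-well plates. 2) Compound, 48 h, 5 concentrations. 3) Linear interpolation between surrounding doses. 4) Unreached endpoint = highest concentration. Abbreviation: GI50, concentration required for 50% inhibition of growth.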 The source made the active and inactive calls. Rule as the data show it: active = GI50 up to about 1.1 µM and inactive = higher.

Key:
Assay in all cases: NCI anticancer screen, dose series, 48 h
Malme-3M = test system: Malme-3M
CCRF-CEM = test system: CCRF-CEM
SW-620 = test system: SW-620
PC-3 = test system: PC-3
OVCAR-4 = test system: OVCAR-4
OVCAR-8 = test system: OVCAR-8
ACHN = test system: ACHN
DU-145 = test system: DU-145
HL-60 = test system: HL-60
MOLT-4 = test system: MOLT-4
TK-10 = test system: TK-10
LOX IMVI = test system: LOX IMVI
NCI/ADR-RES = test system: NCI/ADR-RES
HCT-116 = test system: HCT-116
NCI-H226 = test system: NCI-H226
A498 = test system: A498
BT-549 = test system: BT-549
SK-MEL-5 = test system: SK-MEL-5
OVCAR-5 = test system: OVCAR-5

Row | SMILES | GI50 (Malme-3M) | GI50 (CCRF-CEM) | GI50 (SW-620) | GI50 (PC-3) | GI50 (OVCAR-4) | GI50 (OVCAR-8) | GI50 (ACHN) | GI50 (DU-145) | GI50 (HL-60) | GI50 (MOLT-4) | GI50 (TK-10) | GI50 (LOX IMVI) | GI50 (NCI/ADR-RES) | GI50 (HCT-116) | GI50 (NCI-H226) | GI50 (A498) | GI50 (BT-549) | GI50 (SK-MEL-5) | GI50 (OVCAR-5)
1 | CN(C)CCNC(=O)c1cccc2nc3cccc(F)c3nc12 | 2.04 µM (inactive) | 1.11 µM (active) | 0.65 µM (active) | 1.38 µM (inactive) | 1.47 µM (inactive) | 0.843 µM (active) | 0.484 µM (active) | 2.47 µM (inactive) | 1.48 µM (inactive) | 0.366 µM (active) | 2 µM (inactive) | 0.614 µM (active) | 1.39 µM (inactive) | 0.542 µM (active) | 1.24 µM (inactive) | 1.91 µM (inactive) | 2.23 µM (inactive) | 1.13 µM (inactive) | 2.6 µM (inactive)
2 | Cn1c([N+](=O)[O-])cnc1CN1CCN(CCO)CC1 | > 100 µM (inactive) | > 100 µM (inactive) | > 100 µM (inactive) | > 100 µM (inactive) | > 100 µM (inactive) | > 100 µM (inactive) | > 100 µM (inactive) | > 100 µM (inactive) | > 100 µM (inactive) | > 100 µM (inactive) | > 100 µM (inactive) | > 100 µM (inactive) | > 100 µM (inactive) | > 100 µM (inactive) | > 100 µM (inactive) | > 100 µM (inactive) | > 100 µM (inactive) | > 100 µM (inactive) | > 100 µM (inactive)
3 | CC(C)(C)[Si](C)(C)Oc1ccc(C2CNC(=O)C23CCC(=O)N3Cc2ccccc2)cc1 (stereo not given) | 18.2 µM (inactive) | 17.6 µM (inactive) | 15.1 µM (inactive) | 15.2 µM (inactive) | 13.7 µM (inactive) | 12.6 µM (inactive) | 15 µM (inactive) | 16.7 µM (inactive) | 4.62 µM (inactive) | 6.14 µM (inactive) | 13.2 µM (inactive) | 16.1 µM (inactive) | 12.8 µM (inactive) | 22.2 µM (inactive) | 18.9 µM (inactive) | 12.2 µM (inactive) | 15.5 µM (inactive) | 5.71 µM (inactive) | 17.5 µM (inactive)
4 | CC(=O)Nc1sc(Br)cc1S(=O)(=O)c1ccc(Cl)cc1 | 32.1 µM (inactive) | 35.1 µM (inactive) | 71.1 µM (inactive) | 17.9 µM (inactive) | 23.2 µM (inactive) | 26.9 µM (inactive) | 34 µM (inactive) | 46.6 µM (inactive) | 21.9 µM (inactive) | 35.1 µM (inactive) | 46.7 µM (inactive) |  | 21.9 µM (inactive) | 26.1 µM (inactive) | 19.1 µM (inactive) | 47.2 µM (inactive) | 35.6 µM (inactive) | > 10 µM (inactive) | 26.2 µM (inactive)
5 | CO[C@H]1C=C[C@]23c4cc5c(cc4CN(CC2O)[C@@H]3C1)OCO5 (stereo not given in full) | 2.15 µM (inactive) | 0.314 µM (active) | 3.03 µM (inactive) | 2.39 µM (inactive) | 1.78 µM (inactive) | 3.08 µM (inactive) | 0.678 µM (active) | 0.668 µM (active) | 0.179 µM (active) | 0.873 µM (active) | 3.18 µM (inactive) | 2.18 µM (inactive) | 4.98 µM (inactive) | 1.97 µM (inactive) | 6.9 µM (inactive) | 2.06 µM (inactive) | 2.36 µM (inactive) | 2.29 µM (inactive) | 5.47 µM (inactive)
6 | CCCCc1ccc(Nc2ncc3ncn(COCCO)c3n2)cc1 | 23.1 µM (inactive) | 20.8 µM (inactive) | 47.9 µM (inactive) | 27 µM (inactive) | 41.1 µM (inactive) | 29 µM (inactive) | 26.1 µM (inactive) | 33.3 µM (inactive) | 23.8 µM (inactive) | 21.6 µM (inactive) | 37.8 µM (inactive) | 17.9 µM (inactive) | 29 µM (inactive) | 21 µM (inactive) | 62.2 µM (inactive) | 46.6 µM (inactive) | 36.1 µM (inactive) | 21.8 µM (inactive) | 32.7 µM (inactive)
7 | Oc1c(CN2CCCC2)ccc2cccnc12 | 25.1 µM (inactive) | 8.77 µM (inactive) | 24.2 µM (inactive) | > 39.5 µM (inactive) | 14.9 µM (inactive) | 11 µM (inactive) | 3.55 µM (inactive) | 23.2 µM (inactive) | 4.94 µM (inactive) | 20.1 µM (inactive) | 12.4 µM (inactive) | 15.5 µM (inactive) | 2.38 µM (inactive) | 14.1 µM (inactive) | 21.5 µM (inactive) | 29.9 µM (inactive) | 46.1 µM (inactive) | 12.7 µM (inactive) | 31.6 µM (inactive)
8 | CC(C)(C)N(Cc1ccc2c(c1)OCO2)C(=O)/C=C\Sc1ccccc1 |  | 43.5 µM (inactive) | 99.8 µM (inactive) | 38.1 µM (inactive) | 77.8 µM (inactive) | > 100 µM (inactive) | > 100 µM (inactive) | > 100 µM (inactive) | 37.1 µM (inactive) | 21.1 µM (inactive) | > 100 µM (inactive) | 77.8 µM (inactive) | 89.5 µM (inactive) | 23.9 µM (inactive) | 68.2 µM (inactive) | 71 µM (inactive) | 42.6 µM (inactive) | 53.2 µM (inactive) | > 100 µM (inactive)
9 | Cn1c(=O)c2c(nc3sc4ncccc4c(=O)n32)n(C)c1=O |  | > 100 µM (inactive) | > 100 µM (inactive) | > 100 µM (inactive) | > 100 µM (inactive) | > 100 µM (inactive) | > 100 µM (inactive) | > 100 µM (inactive) | > 100 µM (inactive) | > 100 µM (inactive) | > 100 µM (inactive) | > 100 µM (inactive) | > 100 µM (inactive) | > 100 µM (inactive) | > 100 µM (inactive) | > 100 µM (inactive) | > 100 µM (inactive) | > 100 µM (inactive) | > 100 µM (inactive)
10 | CC(C)(C)c1cc(OCc2nnc3sc(-c4ccc(Cl)cc4)nn23)c(Cl)cc1OCc1nnc2sc(-c3ccc(Cl)cc3)nn12 | 2.93 µM (inactive) |  | 3.13 µM (inactive) | 4.62 µM (inactive) | 3.98 µM (inactive) | 3.93 µM (inactive) | 5.4 µM (inactive) | 4.19 µM (inactive) | 2.46 µM (inactive) | 4.93 µM (inactive) | 8.47 µM (inactive) | 5.04 µM (inactive) | 2.01 µM (inactive) | 3.54 µM (inactive) | 17.3 µM (inactive) | 8.73 µM (inactive) | 4.7 µM (inactive) | 0.726 µM (active) | 29.7 µM (inactive)
11 | N#Cc1ccc(-n2c3ccccc3c3ccc4c(c32)C(=O)C=CC4=O)cc1 |  | 0.409 µM (active) | 1.92 µM (inactive) | 3.06 µM (inactive) | 3.78 µM (inactive) | 3.66 µM (inactive) | 1.56 µM (inactive) | 3.6 µM (inactive) | 0.578 µM (active) | 0.348 µM (active) | 3.4 µM (inactive) | 2.99 µM (inactive) | 10.9 µM (inactive) | 2.42 µM (inactive) | 24.3 µM (inactive) | 1.85 µM (inactive) | 12.2 µM (inactive) | 5.02 µM (inactive) | 17.8 µM (inactive)
12 | Cc1[nH]c2ncn(/N=C/c3ccccc3)c(=N)c2c1Cc1ccccc1 |  | > 100 µM (inactive) | > 100 µM (inactive) | 45.7 µM (inactive) | > 100 µM (inactive) | > 100 µM (inactive) | > 100 µM (inactive) | > 100 µM (inactive) | > 100 µM (inactive) | 53 µM (inactive) | > 100 µM (inactive) | 89.9 µM (inactive) | > 100 µM (inactive) | 87.3 µM (inactive) | 95.5 µM (inactive) | 60.8 µM (inactive) | > 100 µM (inactive) |  | > 100 µM (inactive)
13 | C#CCOC(=O)C(N)CCSC (stereo not given) | > 100 µM (inactive) | > 100 µM (inactive) | > 100 µM (inactive) | > 100 µM (inactive) |  | > 100 µM (inactive) | > 100 µM (inactive) | > 100 µM (inactive) | > 100 µM (inactive) | > 100 µM (inactive) | > 100 µM (inactive) | > 100 µM (inactive) | > 100 µM (inactive) | > 100 µM (inactive) | > 100 µM (inactive) | > 100 µM (inactive) | > 100 µM (inactive) | > 100 µM (inactive) | > 100 µM (inactive)
14 | C[C@]12C[C@H](c3ccccc3)Nc3ccccc3N1C(c1ccccc1)=NO2 | 44.3 µM (inactive) | 67.6 µM (inactive) | > 100 µM (inactive) | 40.4 µM (inactive) | 52 µM (inactive) | 85.7 µM (inactive) | 64.1 µM (inactive) | > 100 µM (inactive) | 74.6 µM (inactive) | 24.5 µM (inactive) | > 100 µM (inactive) |  | 41.1 µM (inactive) | 60.8 µM (inactive) | > 100 µM (inactive) | > 100 µM (inactive) | 30.5 µM (inactive) | 30.1 µM (inactive) | > 100 µM (inactive)
15 | c1ccc(COCC23CCN(Cc4ccccc4)C(CC(OCc4ccccc4)C2)S3)cc1 (stereo not given) | 29.7 µM (inactive) | 56.8 µM (inactive) | > 100 µM (inactive) | 31.8 µM (inactive) | 53.1 µM (inactive) | 73.5 µM (inactive) | 78.9 µM (inactive) | > 100 µM (inactive) | 19.5 µM (inactive) | 25.6 µM (inactive) |  | 19.3 µM (inactive) | 83 µM (inactive) | 42.7 µM (inactive) | 97.3 µM (inactive) | 39.3 µM (inactive) | 42.6 µM (inactive) | 15.8 µM (inactive) | 38.2 µM (inactive)
